Results as given in patent US5747477A, “Azo derivatives of 5-aminosalicylic acid” (priority 1995, dated 1998).
Where two headings read alike, the source gives them in different places.

Legend:
[1] = system: platelet aggregation induced by PAF; test: Test 1-Inhibition of platelet aggregation induced by PAF (C18-PAF, 15 nM); format: cell-based, male New Zealand rabbits; conditions: rabbit platelet rich plasma, 15 nM C18-PAF, read-out: IC50 (concentration of drug required to inhibit platelet aggregatory response by 50%)
Description: Test 1-Inhibition of platelet aggregation induced by PAF.
Platelet rich plasma (PRP) was prepared by centrifuging the blood at 250xg for 10 min. at 4° C. PRP was diluted with platelet-poor plasma (PPP) obtained by further centrifuging at 3000xg for 10 min. The platelet count was adjusted to 3×10^5 cells/mm^3.

[2] = system: PAF-induced hypotension in normotensive rats; test: Test 2- Inhibition of PAF-induced hypotension in normotensive rats; format: in vivo, Male Sprague-Dawley rats; conditions: intravenous, 3 min. before PAF (0.5 μg/Kg); for ED50: Rattus norvegicus, 0.05 h, read-out: ID50 (dose of test compound required to inhibit hypotension by 50%)
Description: Test 2- Inhibition of PAF-induced hypotension in normotensive rats.
Male Sprague-Dawley rats, weighing 180-220 g, were anesthetized with sodium pentobarbital (50 mg/Kg i.p.). Blood pressure was recorded from the left carotid artery using a Statham pressure transducer coupled to a Beckman R611 recorder. Right and left femoral veins were catheterized to inject test compounds and PAF (0.5 μg/Kg). Test compounds were administered by intravenous injection (1 mL/Kg, dissolved in saline) 3 min. before PAF.
Blood pressure was monitored and percent inhibition of PAF-induced hypotension with respect to controls was calculated.

ulcerative colitis = conditions: cited from earlier work; for active moiety in ulcerative colitis: Azad Khan et al., Lancet 1977
[3] = after absorption from the colon; cited from earlier work

IC50 ([1]; Oryctolagus cuniculus) | SMILES | ED50 [2] | further results
19 nM | Cc1nc2cnccc2n1CC1CCN(C(=O)CC(C)(C)c2ccc(N)cc2)CC1 [A, 1-[[1-[3-(4-Aminophenyl)-3-methylbutanoyl]-4-piperidyl]methyl]-1H-2-methylimidazo[4,5-c]pyridine] | 0.099 mg/kg | 
75 nM | Cc1nc2cnccc2n1CC1CCN(C(=O)CN(c2ccccc2)S(=O)(=O)c2ccc(N)cc2)CC1 [D] | 0.088 mg/kg | 
30 nM | CCOC(=O)[C@H](CC(C)C)N(C(=O)c1ccc(N)cc1)S(=O)(=O)c1ccc(Cn2c(C)nc3cnccc32)cc1 [E, N-(4-Aminobenzoyl)-N-[4-(1H-2-methylimidazo[4,5-c]pyridylmethyl)phenylsulfonyl]-L-leucine ethyl ester] | 0.15 mg/kg | 
12 nM | CCOC(=O)[C@H](CC(C)C)N(Cc1ccc(N)cc1)S(=O)(=O)c1ccc(Cn2c(C)nc3cnccc32)cc1 [F, N-(4-Aminobenzyl)-N-[4-(1H-2-methylimidazo[4,5-c]pyridylmethyl)-phenylsulfonyl]-L-leucine ethyl ester] | 0.033 mg/kg | 

The next lines start with the compound.

SMILES | IC50 ([1]; Oryctolagus cuniculus) | ED50 [2] | further results
Cc1nc2cnccc2n1CC1CCN(C(=O)/C=C(/c2ccccc2)c2ccc(N)cc2)CC1 [B, cis-1-[[1-[3-(4-Aminophenyl)-3-phenylpropenoyl]-4-piperidyl]methyl]-1H-2-methylimidazo[4,5-c]pyridine] |  |  | IC50 [1]: 18 nM; ID50 (dose of test compound required to inhibit hypotension by 50%) [2]: 0.029 mg/kg
Cc1nc2cnccc2n1CC1CCN(C(=O)/C=C(\c2ccccc2)c2ccc(N)cc2)CC1 [C, trans-1-[[1-[3-(4-Aminophenyl)-3-phenylpropenoyl]-4-piperidyl]methyl]-1H-2-methylimidazo[4,5-c]pyridine] |  |  | IC50 [1]: 5 nM; ID50 (dose of test compound required to inhibit hypotension by 50%) [2]: 0.01 to 0.025 mg/kg
Nc1ccc(O)c(C(=O)O)c1 [Compound 5-ASA, 5-aminosalicylic acid] |  |  | active moiety in ulcerative colitis (ulcerative colitis): in ulcerative colitis the active moiety is 5-ASA
CCOC[C@H](CC(C)C)N(Cc1ccc(N)cc1)S(=O)(=O)c1ccc(Cn2c(C)nc3cnccc32)cc1 [G, N-(4-Aminobenzyl)-N-[(S)-1-isobutyl-2-ethoxyethyl]-4-(1H-2-methylimidazo[4,5-c]pyridylmethyl)phenylsulfonamide] | 16 nM | 0.14 mg/kg | 
Nc1ccc(S(=O)(=O)Nc2ccccn2)cc1 [Sulfapyridine, sulfapyridine] |  |  | metabolism and excretion [3]: metabolised and excreted in the urine; active moiety in ulcerative colitis (ulcerative colitis): acts only as a carrier; side effects of sulfasalazine ascribed to the moiety (ulcerative colitis; Das et al., New Engl. J. Med. 1973): Most of the side effects of sulfasalazine have been ascribed to the sulfapyridine moiety
